Data reported in ChEMBL document CHEMBL4390689 (Bioorg Med Chem Lett, 2019).
Active and inactive are the calls of the source. The calls are words filed in the database; no cut-off is given here.

Legend:
Tubulin (Homo sapiens) [1] = target: T1, Tubulin (Homo sapiens) (UniProt P68371+Q9H4B7+P0DPH7+P68366+Q13509+Q71U36+P04350+Q3ZCM7+P07437+P68363+Q9BQE3+Q6PEY2+Q13885+Q9BVA1+Q9BUF5); test: Induction of microtubule disposition in human HeLa cells assessed as appearance of multiple clumps of tubulin at 500 pM for 20 hrs measured by immunofluorescence method; type: cell-based
L1210 = test: Growth inhibition of mouse L1210 cells measured after 72 hrs by phosphatase assay; type: functional, cell-based; conditions: L1210, 72 h
HCT-116 = test: Growth inhibition of human HCT116 cells measured after 72 hrs by phosphatase assay; type: functional, cell-based; conditions: HCT-116, 72 h
HCT-116/VM46 = test: Growth inhibition of human HCT116/VM46 cells measured after 72 hrs by phosphatase assay; type: functional, cell-based; conditions: HCT-116/VM46, 72 h
Tubulin (Sus scrofa) = Tubulin (Sus scrofa) (UniProt P02554+P02550); test: Competitive displacement of BODIPY-VBL from porcine brain tubulin at 1.8 uM in presence of GTP by fluorescence method relative to control
Sus scrofa [2] = organism: Sus scrofa; test: Inhibition of GMPCPP-induced porcine brain microtubule polymerization at 2 uM measured upto 30 mins by UV spectrophotometric method
Sus scrofa [3] = organism: Sus scrofa; test: Effect on GMPCPP-induced porcine brain microtubule polymerization assessed as catalytic depolymerisation of microtubulin at 2 uM measured upto 30 mins by UV spectrophotometric method
Sus scrofa [4] = organism: Sus scrofa; test: Inhibition of GMPCPP-induced porcine brain microtubule polymerization at 2 uM under 4 degreeC measured upto 30 mins by UV spectrophotometric method
Bos taurus [5] = organism: Bos taurus; test: Inhibition of bovine microtubule polymerization at 143 pM and measured upto 5000 sec by tubulin polymerisation assay
Bos taurus [6] = organism: Bos taurus; test: Inhibition of bovine microtubule polymerization at 143 nM and measured upto 5000 sec by tubulin polymerisation assay
Sus scrofa [7] = organism: Sus scrofa; test: Inhibition of paclitaxel-induced porcine brain microtubule polymerization at 2 uM measured upto 30 mins by UV spectrophotometric method
Sus scrofa [8] = organism: Sus scrofa; test: Inhibition of paclitaxel-induced porcine brain microtubule polymerization at 2 uM under 4 degreeC measured upto 30 mins by UV spectrophotometric method
Bos taurus [9] = organism: Bos taurus; test: Inhibition of bovine microtubule polymerization at 143 uM and measured upto 5000 sec by tubulin polymerisation assay
Tubulin (Homo sapiens) [10] = target: T1, Tubulin (Homo sapiens); test: Inhibition of global microtubule skeleton in human HeLa cells assessed as catastrophic effect on global microtubule skeleton at 75 pM incubated for 20 hrs by Hoechst/[…] staining based confocal microscopy; type: cell-based
HeLa [11] = test: Induction of mitotic arrest in human HeLa cells after 24 hrs by immunofluorescence based confocal microscopy relative to control; type: functional, cell-based
HeLa [12] = test: Potency index, ratio of vinblastine effect to compound effect for Induction of mitotic arrest in human HeLa cells after 24 hrs by immunofluorescence based confocal microscopy relative to control; type: functional
[13] = target: T2, Tubulin alpha (Homo sapiens) (UniProt P0DPH7+P68366+Q71U36+P68363+Q9BQE3+Q6PEY2+A6NHL2+Q9NY65); test: Induction of microtubule disposition in human HeLa cells assessed as detection of alpha tubulin isoform at 500 nM for 20 hrs measured by immunofluorescence method; type: cell-based
[14] = target: Tubulin beta (Homo sapiens) (UniProt P68371+Q9H4B7+Q13509+P04350+Q3ZCM7+P07437+Q13885+Q9BVA1+Q9BUF5+A6NNZ2); test: Induction of microtubule disposition in human HeLa cells assessed as detection of beta tubulin isoform at 500 nM for 20 hrs measured by immunofluorescence method; type: cell-based
HeLa [15] = test: Induction of microtubule disposition in human HeLa cells assessed as detection of gamma tubulin isoform at 500 nM for 20 hrs measured by immunofluorescence method; type: cell-based
Tubulin (Homo sapiens) [16] = target: T1, Tubulin (Homo sapiens); test: Induction of microtubule disposition in human HeLa cells assessed as appearance of clumps of tubulin without […] at 500 pM incubated for 20 hrs measured by immunofluorescence method; type: cell-based
Tubulin (Homo sapiens) [17] = target: T1, Tubulin (Homo sapiens); test: Inhibition of human GFP tagged tubulin expressed in human HeLa cells assessed as suppression of microtubule dynamics at 500 nM after 5 hrs by TIRF super resolution microscopy; type: cell-based
Tubulin (Homo sapiens) [18] = target: T1, Tubulin (Homo sapiens); test: Inhibition of GFP tagged human tubulin expressed in human HeLa cells assessed as increase in the ratio of short versus medium and long microtubules after 5 hrs by TIRF super resolution microscopy; type: cell-based
HeLa [19] = test: Induction of mitotic arrest in human HeLa cells after 24 hrs by immunofluorescence based confocal microscopy relative to vinblastine; type: functional
HeLa [20] = test: Growth inhibition of human HeLa cells measured after 72 hrs by phosphatase assay; type: functional, cell-based
[21] = target: T2, Tubulin alpha (Homo sapiens); test: Induction of microtubule disposition in human HeLa cells assessed as detection of alpha tubulin isoform at 10 nM for 20 hrs measured by immunofluorescence method; type: cell-based
HeLa [22] = test: Induction of microtubule disposition in human HeLa cells assessed as detection of gamma tubulin isoform at 10 nM for 20 hrs measured by immunofluorescence method; type: cell-based

Row | Structure (SMILES) | IC50 (L1210) [pM] | IC50 (HCT-116) [pM] | IC50 (HCT-116/VM46) [pM] | Activity (Tubulin (Sus scrofa)) [%] | inhibition (Sus scrofa [2]) | Activity (Sus scrofa [3]) | inhibition (Sus scrofa [4]) | inhibition (Bos taurus [5]) | inhibition (Bos taurus [6]) | inhibition (Sus scrofa [7]) | inhibition (Sus scrofa [8]) | inhibition (Bos taurus [9]) | IC50 (HeLa [20]) [pM] | Activity (HeLa [11]) | further results
1 | CC[C@]1(NC(=O)N2Cc3ccc(NC(=O)c4cnccn4)cc3C2)C[C@H]2CN(CCc3c([nH]c4ccccc34)[C@@](C(=O)OC)(c3cc4c(cc3OC)N(C)[C@H]3[C@@](O)(C(=O)OC)[C@H](OC(C)=O)[C@]5(CC)C=CCN6CC[C@]43[C@@H]65)C2)C1 | 59 | 75 | 830 | 105 | inactive | inactive | Active | inactive | inactive | inactive | Active | Active | 83 | Dose-dependent effect | Activity (Tubulin (Homo sapiens) [1]): Active; inhibition (Tubulin (Homo sapiens) [10]): inactive; Ratio (HeLa [12]): 100; Activity [13]: Active; Activity [14]: Active; Activity (HeLa [15]): inactive; Activity (Tubulin (Homo sapiens) [16]): Active; inhibition (Tubulin (Homo sapiens) [17]): Active; inhibition (Tubulin (Homo sapiens) [18]): Active; fold change (FC) (HeLa [19]): 100
2 | CC[C@]1(NC(=O)N2Cc3ccc(NC(=O)c4cccnn4)cc3C2)C[C@H]2CN(CCc3c([nH]c4ccccc34)[C@@](C(=O)OC)(c3cc4c(cc3OC)N(C)[C@H]3[C@@](O)(C(=O)OC)[C@H](OC(C)=O)[C@]5(CC)C=CCN6CC[C@]43[C@@H]65)C2)C1 | 59 | 67 | 870 | 101 | – | – | – | inactive | inactive | – | – | – | – | – | –

Second part, led by results:

Row | IC50 (L1210) [pM] | IC50 (HCT-116) [pM] | IC50 (HCT-116/VM46) [pM] | Activity (Tubulin (Sus scrofa)) [%] | inhibition (Sus scrofa [2]) | Activity (Sus scrofa [3]) | inhibition (Sus scrofa [4]) | inhibition (Bos taurus [5]) | inhibition (Bos taurus [6]) | inhibition (Sus scrofa [7]) | inhibition (Sus scrofa [8]) | inhibition (Bos taurus [9]) | IC50 (HeLa [20]) [pM] | Structure (SMILES) | Activity (HeLa [11]) | further results
3 | – | – | – | 49 | – | – | – | – | – | – | – | – | – | CC[C@]1(NC(=O)N2Cc3ccccc3C2)C[C@H]2CN(CCc3c([nH]c4ccccc34)[C@@](C(=O)OC)(c3cc4c(cc3OC)N(C)[C@H]3[C@@](O)(C(=O)OC)[C@H](OC(C)=O)[C@]5(CC)C=CCN6CC[C@]43[C@@H]65)C2)C1 | – | –
4 | 62 | 74 | 880 | 104 | inactive | inactive | Active | inactive | inactive | inactive | Active | – | – | CC[C@]1(NC(=O)N2Cc3ccc(NC(=O)c4ccncn4)cc3C2)C[C@H]2CN(CCc3c([nH]c4ccccc34)[C@@](C(=O)OC)(c3cc4c(cc3OC)N(C)[C@H]3[C@@](O)(C(=O)OC)[C@H](OC(C)=O)[C@]5(CC)C=CCN6CC[C@]43[C@@H]65)C2)C1 | – | –
5 | – | – | – | 31 | – | – | – | – | – | – | – | Active | 7800 | CC[C@]1(O)C[C@@H]2CN(CCc3c([nH]c4ccccc34)[C@@](C(=O)OC)(c3cc4c(cc3OC)N(C)[C@H]3[C@@](O)(C(=O)OC)[C@H](OC(C)=O)[C@]5(CC)C=CCN6CC[C@]43[C@@H]65)C2)C1 [VINBLASTINE] | Dose-dependent effect | Activity [21]: Active; Activity (HeLa [22]): inactive
